How the values were obtained:
red blood cells = conditions: hemolytic activity against red blood cells; ref [19]; cited from earlier work
Excerpt: Table 1 Amino acid sequences, physico-chemical and biological properties (µH is the hydrophobic moment, and H represents the mean hydrophobicity, calculated according to [27]), of the studied antibacterial HAL-1 peptides. Data were taken from ref. [19]. Point mutations with respect to the natural HAL-1 peptide are underlined. The Schiffer−Edmundson wheel projection of the HAL-1 and its analogs | column: Hemolytic LC50 (µM)

Staphylococcus aureus = conditions: ref [19]; cited from earlier work
Excerpt: Table 1 Amino acid sequences, physico-chemical and biological properties (µH is the hydrophobic moment, and H represents the mean hydrophobicity, calculated according to [27]), of the studied antibacterial HAL-1 peptides. Data were taken from ref. [19]. Point mutations with respect to the natural HAL-1 peptide are underlined. The Schiffer−Edmundson wheel projection of the HAL-1 and its analogs | column: Antimicrobial Activity MIC (µM) / S.^2

Escherichia coli = conditions: ref [19]; cited from earlier work
Excerpt: Table 1 Amino acid sequences, physico-chemical and biological properties (µH is the hydrophobic moment, and H represents the mean hydrophobicity, calculated according to [27]), of the studied antibacterial HAL-1 peptides. Data were taken from ref. [19]. Point mutations with respect to the natural HAL-1 peptide are underlined. The Schiffer−Edmundson wheel projection of the HAL-1 and its analogs | column: Antimicrobial Activity MIC (µM) / E.^3

Bacillus subtilis = conditions: ref [19]; cited from earlier work
Excerpt: Table 1 Amino acid sequences, physico-chemical and biological properties (µH is the hydrophobic moment, and H represents the mean hydrophobicity, calculated according to [27]), of the studied antibacterial HAL-1 peptides. Data were taken from ref. [19]. Point mutations with respect to the natural HAL-1 peptide are underlined. The Schiffer−Edmundson wheel projection of the HAL-1 and its analogs | column: Antimicrobial Activity MIC (µM) / B.^1

[1] = Concentration dependence of ECD and VCD spectra (aggregation); format: physicochemical; conditions: aqueous solution, 100 mg/mL peptide, room temperature, ECD and VCD read-out
Excerpt: In order to clarify the discrepancy between the results of the peptide conformational analyses obtained by ECD and IR, we have complemented our study by a measurement of concentration dependencies of ECD spectra of the HAL-1 peptides (Figure 9). […] In order to determine the peptide conformational change induced by its high concentration more specifically, we have performed measurements of VCD spectra of the peptides (Figure 10) using the highest peptide concentration studied by ECD (i.e., 100 mg/mL). VCD measurements supported the results of ECD analysis, confirming that at high peptide concentration, HAL-1 and its analogs HAL-1/6, HAL-1/10, and HAL-1/20 spontaneously form the α-helical structure, indicated by a negative/positive VCD couplet in the amide I region. On the contrary, the HAL-1/2 analog (Figure 10b) seems to undergo a distinct conformational change, forming highly organized β-sheet aggregates (β-sheet fibrils) characterized by an intense five-peak VCD signal with the (−/−/+/−/−) sign pattern in the amide I and II region. […]
Concentration dependence was measured for all the peptides at the given concentrations: 0.1, 10, and 100 mg/mL. […] The α-helical fraction was calculated using a two-state model. […]
VCD spectra were measured on a dual source and dual photo-elastic modulator [67] […]

Pseudomonas aeruginosa = conditions: ref [19]; cited from earlier work
Excerpt: Table 1 Amino acid sequences, physico-chemical and biological properties (µH is the hydrophobic moment, and H represents the mean hydrophobicity, calculated according to [27]), of the studied antibacterial HAL-1 peptides. Data were taken from ref. [19]. Point mutations with respect to the natural HAL-1 peptide are underlined. The Schiffer−Edmundson wheel projection of the HAL-1 and its analogs | column: Antimicrobial Activity MIC (µM) / P.^4

With “GKWSKILGKLIR [HAL-1/20, HAL-1 analog, Met2 and His9 substituted by Lys]” as the sequence, how does the “Hemolytic LC50” value (red blood cells) read?
The value was greater than 200 µM.

And the “Antimicrobial Activity MIC S.” value (Staphylococcus aureus)?
Its value is 21.7 µM.

What about the “Antimicrobial Activity MIC E.” value (Escherichia coli) of the same sequence?
Its value is 2.3 µM.

What about the “Antimicrobial Activity MIC B.” value (Bacillus subtilis) of the same sequence?
Its value is 1.7 µM.

With “GMWSKILGPLIR [HAL-1/2, HAL-1 analog, His9 substituted by Pro]” as the sequence, how does the “Hemolytic LC50” value (red blood cells) read?
The value was greater than 200 µM.

What about the “Antimicrobial Activity MIC S.” value (Staphylococcus aureus) of the same sequence?
Its value is greater than 100 µM.

What about the “Antimicrobial Activity MIC E.” value (Escherichia coli) of the same sequence?
Its value is 30.0 µM.

And the “Aggregation at high peptide concentration” value [1]?
Its value is “form β-aggregates”.

And the “Antimicrobial Activity MIC B.” value (Bacillus subtilis)?
Its value is 3.6 µM.

And the “Antimicrobial Activity MIC P.” value (Pseudomonas aeruginosa)?
Its value is greater than 100 µM.

Which results are given for “GMWSKILGHLIK [HAL-1/6, HAL-1 analog, Arg12 replaced by Lys]”?
Hemolytic LC50 (red blood cells): 132 µM; Antimicrobial Activity MIC S. (Staphylococcus aureus): 15.8 µM; Antimicrobial Activity MIC E. (Escherichia coli): 7.2 µM; Antimicrobial Activity MIC B. (Bacillus subtilis): 1.3 µM; Antimicrobial Activity MIC P. (Pseudomonas aeruginosa): 65.0 µM

With GMWSKILGHLIR [HAL-1] as the sequence, how does the “Hemolytic LC50” value (red blood cells) read?
Its value is 82 µM.

What about the “Antimicrobial Activity MIC S.” value (Staphylococcus aureus) of the same sequence?
The value was 7.7 µM.

And the “Antimicrobial Activity MIC E.” value (Escherichia coli)?
Its value is 3.8 µM.

And the “Antimicrobial Activity MIC B.” value (Bacillus subtilis)?
Its value is 0.8 µM.

And the “Antimicrobial Activity MIC P.” value (Pseudomonas aeruginosa)?
Its value is 45.0 µM.

What does the source list for “GMWKKILGKLIR [HAL-1/10, HAL-1 analog, Ser4 and His9 substituted by Lys]”?
Hemolytic LC50 (red blood cells): >200 µM; Antimicrobial Activity MIC S. (Staphylococcus aureus): 15.0 µM; Antimicrobial Activity MIC E. (Escherichia coli): 2.3 µM; Antimicrobial Activity MIC B. (Bacillus subtilis): 0.8 µM; Antimicrobial Activity MIC P. (Pseudomonas aeruginosa): 13.1 µM

Source: article PMC6387077, “Interaction of Halictine-Related Antimicrobial Peptides with Membrane Models” (International Journal of Molecular Sciences, 2019)
